Data on 32 compounds can be found in patent US20120214822A1 (ASTRAZENECA AB, priority 2007, published 2012).

The structures appear in SMILES notation. Structures can show the parent of a compound that is named as a salt.

In this test the target is human active recombinant p38α-6His tagged (Homo sapiens, UniProt Q16539). Nature of the test: P38 Alpha Enzyme Assay (AlphaScreen, biotinylated-ATF2 substrate).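 Also: 0.5 nM final p38α, reaction started with ATP and run 45 min at 37 °C, phospho-ATF2 read by antibody-based AlphaScreen, background wells quenched with EDTA before ATP.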 In kind it is biochemical. The following applies: p38 alpha enzyme inhibition; means of replicate determinations; 4 h pre-incubation at 37° C.; SD of assay 0.2-0.3 log units. Background: In Alpha technology, singlet oxygen from a donor bead excites a nearby acceptor bead.
Sequence of human active recombinant p38α-6His tagged (Q16539 whole entry): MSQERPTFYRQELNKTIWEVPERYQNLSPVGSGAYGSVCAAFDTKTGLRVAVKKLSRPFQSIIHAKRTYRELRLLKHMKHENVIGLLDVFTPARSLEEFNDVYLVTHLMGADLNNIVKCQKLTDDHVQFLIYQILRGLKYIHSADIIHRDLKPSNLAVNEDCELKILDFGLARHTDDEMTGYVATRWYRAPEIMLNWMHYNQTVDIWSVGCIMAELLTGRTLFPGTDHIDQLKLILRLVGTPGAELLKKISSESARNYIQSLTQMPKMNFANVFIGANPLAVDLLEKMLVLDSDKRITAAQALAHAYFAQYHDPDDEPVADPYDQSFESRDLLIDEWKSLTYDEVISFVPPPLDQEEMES

One may read the pIC50 as the IC50 on a negative log10 scale, so that one unit is a factor of ten. Consider `Cc1c(F)cc(C(=O)NC2CC2)cc1-n1ccnc(N[C@@H](c2ccccc2)[C@@H](C)CN2CCCC2)c1=O` [Example 328, N-Cyclopropyl-3-fluoro-4-methyl-5-[3-{[(1R,2S)-2-methyl-1-phenyl-3-pyrrolidin-1-ylpropyl]amino}-2-oxopyrazin-1(2H)-yl]benzamide], for which the negative-log IC50 (pIC50) was 9.

Regarding `Cc1ccc(C(=O)NC2CC2)cc1-n1ccnc(NCc2ccccc2CN2CCN(C)CC2)c1=O` [Example 41, N-Cyclopropyl-4-methyl-3-[3-[[[2-[(4-methyl-1-piperazinyl)methyl]phenyl]methyl]amino]-2-oxo-1(2H)-pyrazinyl]-benzamide], the pIC50 is reported as 7.

As to `CNCCOc1ccccc1C(C)(C)Nc1nccn(-c2cc(C(=O)NCCF)ccc2C)c1=O` [Example 225, N-(2-Fluoroethyl)-4-methyl-3-[3-[[1-methyl-1-[2-[2-(methylamino)ethoxy]phenyl]ethyl]amino]-2-oxo-1(2H)-pyrazinyl]-benzamide], the negative-log IC50 (pIC50) was found to be 8.2. A word on the IC50: it is the concentration at which inhibition is half-maximal. Turning to `Cc1ccc(C(=O)NC2CC2)cc1-n1ccnc(NCC2(c3ccccc3)CCN(C)CC2)c1=O` [Example 35, N-Cyclopropyl-4-methyl-3-[3-[[(1-methyl-4-phenyl-4-piperidinyl)methyl]amino]-2-oxo-1(2H)-pyrazinyl]-benzamide], the IC50 is 251 nM. As to `Cc1ccc(C(=O)NC2CC2)cc1-n1ccnc(NCc2cccc(CN3CCN(C)CC3)c2)c1=O` [Example 40, N-Cyclopropyl-4-methyl-3-[3-[[[3-[(4-methyl-1-piperazinyl)methyl]phenyl]methyl]amino]-2-oxo-1(2H)-pyrazinyl]-benzamide], the negative-log IC50 (pIC50) stood at 6.7. As to `Cc1ccc(C(=O)NC2CC2)cc1-n1ccnc(NC(C)(C)c2ccccc2OC[C@@H](CO)N(C)C)c1=O` [Example 306, N-Cyclopropyl-3-[3-{[1-(2-{[(2R)-2-(dimethylamino)-3-hydroxypropyl]oxy}phenyl)-1-methylethyl]amino}-2-oxopyrazin-1(2H)-yl]-4-methylbenzamide], the negative-log IC50 (pIC50) was determined as 10.1. On the same count and under the same terms, the figure for `Cc1ccc(C(=O)NC2CC2)cc1-n1ccnc(SCc2ccccc2)c1=O` [Example 118] is 7.3; for `Cc1ccc(C(=O)NC2CC2)cc1-n1ccnc(N[C@@H](c2ccccc2)[C@@H](C)CN2CCC[C@H]2C)c1=O` [Example 184, N-Cyclopropyl-4-methyl-3-[3-[[(1R,2S)-2-methyl-3-[(2R)-2-methyl-1-pyrrolidinyl]-1-phenylpropyl]amino]-2-oxo-1(2H)-pyrazinyl]-benzamide] it is 8.7; for `Cc1ccc(C(=O)NC2CC2)cc1-n1ccnc(NC2(c3ccccc3OCCN3CC[C@@H](O)C3)CC2)c1=O` [Example 236, N-Cyclopropyl-3-[3-[[1-[2-[2-[(3R)-3-hydroxy-1-pyrrolidinyl]ethoxy]phenyl]cyclopropyl]amino]-2-oxo-1(2H)-pyrazinyl]-4-methyl-benzamide] it is 10. Same read-out and setting: the figure for `Cc1ccc(C(=O)NC2CC2)cc1-n1ccnc(N2CCNC(c3ccccc3)C2)c1=O` (centres unmarked) [Example 53, N-Cyclopropyl-4-methyl-3-[2-oxo-3-(3-phenyl-1-piperazinyl)-1(2H)-pyrazinyl]-benzamide] is 7.4; for `Cc1ccc(C(=O)NC2CC2)cc1-n1ccnc(NCc2cc(C(F)(F)F)cc(C(F)(F)F)c2)c1=O` [Example 99, 3-[3-[[[3,5-Bis(trifluoromethyl)phenyl]methyl]amino]-2-oxo-1(2H)-pyrazinyl]-N-cyclopropyl-4-methyl-benzamide] it is 7.1; for `Cc1ccc(C(=O)NC2CC2)cc1-n1ccnc(N[C@@H](c2ccccc2)[C@@H](C)CN2CCC3(CC2)OCCO3)c1=O` [Example 179, N-Cyclopropyl-3-[3-[[(1R,2S)-3-(1,4-dioxa-8-azaspiro[4.5]dec-8-yl)-2-methyl-1-sphenylpropyl]amino]-2-oxo-1(2H)-pyrazinyl]-4-methyl-benzamide] it is 8.9. Take `Cc1ccc(C(=O)NC2CC2)cc1-n1ccnc(NC2(c3ccccc3OCCN(C)C)CC2)c1=O` [Example 237, N-Cyclopropyl-3-[3-[[1-[2-[2-(dimethylamino)ethoxy]phenyl]cyclopropyl]amino]-2-oxo-1(2H)-pyrazinyl]-4-methyl-benzamide]: the pIC50 is 9.9. On to `CNCCCOc1ccccc1[C@@H]1CCCN1c1nccn(-c2cc(C(=O)NC3CC3)ccc2C)c1=O` (single isomer, unassigned) [Example 326], for which the 50% inhibitory concentration (IC50) was 25.1 nM. `Cc1ccc(C(=O)NC2CC2)cc1-n1ccnc(NC(C)(C)c2ccccc2OCCNC(C)C)c1=O` [Example 212, N-Cyclopropyl-4-methyl-3-[3-[[1-methyl-1-[2-[2-[(1-methylethyl)amino]ethoxy]phenyl]ethyl]amino]-2-oxo-1(2H)-pyrazinyl]-benzamide]: the negative logarithm of the IC50 (pIC50) came to 9.6. With `Cc1ccc(C(=O)NC2CC2)cc1-n1ccnc(NC(C)(C)c2ccccc2OCCN2CCNCC2)c1=O` [Example 199, N-Cyclopropyl-4-methyl-3-[3-[[1-methyl-1-[2-[2-(1-piperazinyl)ethoxy]phenyl]ethyl]amino]-2-oxo-1(2H)-pyrazinyl]-benzamide], the pIC50 was 9.1. Same read-out and setting: in the case of `CNCCOc1ccc(F)cc1C1(Nc2nccn(-c3cc(C(=O)NC4CC4)cc(F)c3C)c2=O)CC1` [Example 281, N-Cyclopropyl-3-fluoro-5-{3-[(1-{5-fluoro-2-[2-(methylamino)ethoxy]phenyl}cyclopropyl)amino]-2-oxopyrazin-1(2H)-yl}-4-methylbenzamide] it was 10.4; in that of `Cc1ccc(C(=O)NC2CC2)cc1-n1ccnc(N[C@@H](c2ccccc2)[C@@H](C)CN2CCSCC2)c1=O` [Example 189, N-Cyclopropyl-4-methyl-3-[3-[[(1R,2S)-2-methyl-1-phenyl-3-(4-thiomorpholinyl)propyl]amino]-2-oxo-1(2H)-pyrazinyl]-benzamide], 9.2. In the case of `Cc1ccc(C(=O)NC2CC2)cc1-n1ccnc(NCc2cccc(F)c2)c1=O` [Example 22, N-Cyclopropyl-3-[3-[[(3-fluorophenyl)methyl]amino]-2-oxo-1(2H)-pyrazinyl]-4-methyl-benzamide], the negative-log IC50 (pIC50) was 7. Take `Cc1ccc(C(=O)NC2CC2)cc1-n1ccnc(NC2(c3ccccc3OCCN3CCNCC3)CC2)c1=O` [Example 243, N-Cyclopropyl-4-methyl-3-[2-oxo-3-[[1-[2-[2-(1-piperazinyl)ethoxy]phenyl]cyclopropyl]amino]-1(2H)-pyrazinyl]-benzamide]: the pIC50 was 9.4.

Regarding `Cc1ccc(C(=O)NC2CC2)cc1-n1ccnc(NCCCN2CCN(C)CC2)c1=O` [Example 4, N-Cyclopropyl-4-methyl-3-[3-[[3-(4-methyl-1-piperazinyl)propyl]amino]-2-oxo-1(2H)-pyrazinyl]-benzamide], the negative logarithm of the IC50 (pIC50) was determined as 6.1.

Regarding `Cc1ccc(C(=O)NC2CC2)cc1-n1cc(Cl)nc(NCCCN(C)C)c1=O` [Example 108, 3-[5-Chloro-3-[[3-(dimethylamino)propyl]amino]-2-oxo-1(2H)-pyrazinyl]-N-cyclopropyl-4-methyl-benzamide], the pIC50 stood at 6.3.

`Cc1ccc(C(=O)NC2CC2)cc1-n1ccnc(NC2(c3ccccc3OCCN3CCc4c(ncn4C)C3)CC2)c1=O` [Example 297, N-Cyclopropyl-4-methyl-3-{3-[(1-{2-[2-(1-methyl-1,4,6,7-tetrahydro-5H-imidazo[4,5-c]pyridin-5-yl)ethoxy]phenyl}cyclopropyl)amino]-2-oxopyrazin-1(2H)-yl}benzamide]: the negative logarithm of the IC50 (pIC50) is given as 9.4. The same measure, in the same setting: in the case of `Cc1cccc(CNc2nccn(-c3cc(C(=O)NC4CC4)ccc3C)c2=O)c1` [Example 46, N-Cyclopropyl-4-methyl-3-[3-[[(3-methylphenyl)methyl]amino]-2-oxo-1(2H)-pyrazinyl]-benzamide] it was 8; in that of `Cc1ccc(C(=O)NC2CC2)cc1-n1ccnc(NC2(c3ccccc3OCCN3CCn4ccnc4C3)CC2)c1=O` [Example 296, N-Cyclopropyl-3-{3-[(1-{2-[2-(5,6-dihydroimidazo[1,2-a]pyrazin-7(8H)-yl)ethoxy]phenyl}cyclopropyl)amino]-2-oxopyrazin-1(2H)-yl}-4-methylbenzamide], 9.1; in that of `Cc1ccc(C(=O)NC2CC2)cc1-n1ccnc(N[C@@H](c2ccccc2)C2CCNCC2)c1=O` [Example 101, N-Cyclopropyl-4-methyl-3-[2-oxo-3-[[(R)-phenyl-4-piperidinylmethyl]amino]-1(2H)-pyrazinyl]-benzamide, trifluoroacetate], 7.4. The same measure, in the same setting: the figure for `Cc1ccc(C(=O)NC2CC2)cc1-n1ccnc(N[C@H](CC(=O)NC2CC2)c2ccccc2)c1=O` [Example 89] is 7.6. For `CNCCOc1ccccc1C1(Nc2nccn(-c3cc(C(=O)NC4CC4)c(F)cc3C)c2=O)CC1` [Example 319, N-Cyclopropyl-2-fluoro-4-methyl-5-{3-[(1-{2-[2-(methylamino)ethoxy]phenyl}cyclopropyl)amino]-2-oxopyrazin-1(2H)-yl}benzamide], the pIC50 is 8.1. The same measure, in the same setting: in the case of `CNC[C@@H](O)COc1ccccc1C1(Nc2nccn(-c3cc(C(=O)NC4CC4)ccc3C)c2=O)CC1` [Example 301, N-Cyclopropyl-3-[3-{[1-(2-{[(2R)-2-hydroxy-3-(methylamino)propyl]oxy}phenyl)cyclopropyl]amino}-2-oxopyrazin-1(2H)-yl]-4-methylbenzamide] it was 10.1; in that of `Cc1c(F)cc(C(=O)NC2CC2)cc1-n1ccnc(NC(C)(C)c2ccccc2OCCN)c1=O` [Example 311, 3-[3-({1-[2-(2-Aminoethoxy)phenyl]-1-methylethyl}amino)-2-oxopyrazin-1(2H)-yl]-N-cyclopropyl-5-fluoro-4-methylbenzamide], 10.1; in that of `Cc1ccc(C(=O)NC2CC2)cc1-n1ccnc(NCc2ccccn2)c1=O` [Example 23, N-Cyclopropyl-4-methyl-3-[2-oxo-3-[(2-pyridinylmethyl)amino]-1(2H)-pyrazinyl]-benzamide], 6.9. The same measure, in the same setting: the figure for `Cc1ccc(C(=O)NC2CC2)cc1-n1cc(Cl)nc(NCCc2ccccc2)c1=O` [Example 110, 3-[5-Chloro-2-oxo-3-[(2-phenylethyl)amino]-1(2H)-pyrazinyl]-N-cyclopropyl-4-methyl-benzamide] is 6.7.
